Source: patent US6221865A, “Inhibitors of protein isoprenyl transferases” (priority 1998, dated 2001)
Counter-ions that a name gives are not always drawn. Blank lines part the entries; values can stand above or below the compound they belong to.

Molecular target: T1, protein farnesyltransferase (Rattus norvegicus, UniProt Q02293+Q04631)
T1 construct: The enzyme is purified according to Reiss, Y., et al., Cell, 62: 81-88 (1990), utilizing steps one through three; from tissue; host or cells: rat brain
T1 sequence (Q02293 whole entry, one chain of several): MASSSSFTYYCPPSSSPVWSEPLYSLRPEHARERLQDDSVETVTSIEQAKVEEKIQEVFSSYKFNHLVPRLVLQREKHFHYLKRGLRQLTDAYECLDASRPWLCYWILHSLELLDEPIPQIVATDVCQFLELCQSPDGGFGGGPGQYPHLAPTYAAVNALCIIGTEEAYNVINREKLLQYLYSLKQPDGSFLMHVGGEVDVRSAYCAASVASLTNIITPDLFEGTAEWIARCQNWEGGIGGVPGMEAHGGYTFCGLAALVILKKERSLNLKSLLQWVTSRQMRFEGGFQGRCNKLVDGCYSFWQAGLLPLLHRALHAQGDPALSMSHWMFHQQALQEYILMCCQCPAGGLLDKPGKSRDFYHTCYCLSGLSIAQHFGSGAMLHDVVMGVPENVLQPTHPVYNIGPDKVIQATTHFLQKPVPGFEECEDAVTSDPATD
Test: Inhibition of farnesyltransferase (scintillation proximity assay, rat brain enzyme, biotin-K Ras B fragment substrate)
Format: biochemical
Conditions: for inhibition at 1 µM: read-out: % inhibition of farnesyltransferase at 1 × 10^-6 M; for inhibition at 1 µM / % inhibition of farnesyltransferase at 1 × 10^-6 M: 1 × 10^-6 M (Table 2); for % inhibition of farnesyltransferase at 1 × 10^-7 M / inhibition at 0.1 µM: 1 × 10^-7 M (Table 3); for % inhibition of farnesyltransferase at 1 × 10^-5 M: 1 × 10^-5 M (Table 1); for inhibition at 0.1 µM: read-out: % inhibition of farnesyltransferase at 1 × 10^-7 M; for % inhibition of farnesyltransferase at 1 × 10^-8 M: 1 × 10^-8 M (Table 4)
Description: The ability of the compounds of the invention to inhibit protein farnesyltransferase or protein geranylgeranyltransferase can be measured according to the method of Moores, et al., J. Biol. Chem. 266: 14603 (1991) or the method of Vogt, et al., J. Biol. Chem. 270:660-664 (1995). In addition, procedures for determination of the inhibition of farnesylation of the oncogene protein Ras are described by Goldstein, et al., J. Biol. Chem., 266:15575-15578 (1991) and by Singh in U.S. Pat. No. 5,245,061.
In addition, in vitro inhibition of protein farnesyltransferase may be measured by the following procedure. Rat brain protein farnesyltransferase activity is measured using an Amersham Life Science commercial scintillation proximity assay kit and substituting a biotin-K Ras B fragment (biotin-[…]Ble-Met-CO2 H), […] final concentration, for the biotin-lamin substrate provided by Amersham. The enzyme is purified according to Reiss, Y., et al., Cell, 62: 81-88 (1990), utilizing steps one through three.
The % inhibition of protein farnesyltransferase was determined for representative compounds of the invention.

SMILES: CSCC[C@H](NC(=O)c1ccc(OC/C=C/c2ccccc2)cc1-c1ccccc1C)C(=O)O [Example 560]
% inhibition of farnesyltransferase at 1 × 10^-6 M: 91%

SMILES: CCCCN(C)N(CCC1CCCCC1)Cc1ccc(C(=O)N[C@@H](CCSC)C(=O)O)c(-c2ccccc2C)c1 [Example 299]
inhibition at 1 µM: 94%

SMILES: CSCC[C@H](NC(=O)c1ccc(CCc2ccccc2Cc2ccccc2)cc1-c1ccccc1C)C(=O)O [Example 458, lithium salt]
inhibition at 0.1 µM: 87%

SMILES: COc1cccc(COCc2ccc(C(=O)N[C@@H](CCSC)C(=O)[O-])c(-c3ccccc3C)c2)c1.[Li+] [Example 932]
% inhibition of farnesyltransferase at 1 × 10^-8 M: 60%

SMILES: CSCC[C@H](NC(=O)c1ccc(CN[C@H](CO)C2CCCCC2)cc1-c1ccccc1C)C(=O)O [Example 520]
% inhibition of farnesyltransferase at 1 × 10^-7 M: 97%

SMILES: CSCC[C@H](NC(=O)c1ccc(CN(CCC2CCCCC2)Cc2ccccc2)cc1-c1ccccc1C)C(=O)[O-].[Li+] [Example 605]
% inhibition of farnesyltransferase at 1 × 10^-8 M: 68%

SMILES: CSCC[C@H](NC(=O)c1ccc(COCc2ccc3ccccc3c2)cc1-c1ccccc1C)C(=O)[O-].[Li+] [Example 583]
% inhibition of farnesyltransferase at 1 × 10^-6 M: 98%

SMILES: CSCC[C@H](NC(=O)c1ccc(CN(Cc2ccccc2)Cc2ccco2)cc1-c1ccccc1C)C(=O)O [Example 504]
% inhibition of farnesyltransferase at 1 × 10^-6 M: 90%

SMILES: CSCC[C@H](NC(=O)c1ccc(-c2ccccc2-c2ccccc2)cc1-c1ccccc1C)C(=O)O [Example 786, N-[4-(2-phenylphenyl)-2-(2-methylphenyl)benzoyl]methionine lithium salt]
inhibition at 1 µM: 34%

SMILES: CSCC[C@@H](C(=O)[O-])N(C)C(=O)c1ccc(COCCCC2CCCCC2)cc1-c1ccccc1C.[Li+] [Example 597]
% inhibition of farnesyltransferase at 1 × 10^-7 M: 75%

SMILES: CCCCC(OCc1ccc(C(=O)N[C@@H](CCSC)C(=O)[O-])c(-c2ccccc2C)c1)c1ccc(-c2ccc(Cl)cc2)o1.[Li+] (some centres unmarked) [Example 826]
% inhibition of farnesyltransferase at 1 × 10^-8 M: 92%

SMILES: CSCC[C@H](NC(=O)c1ccc(CN(C2CC2)C2(CC3CCCCC3)CCC2)cc1-c1ccccc1C)C(=O)O [Example 330]
inhibition at 1 µM: 98%

SMILES: CSCC[C@H](NC(=O)c1ccc(COC2CCN(C(=O)OC(C)(C)C)CC2)cc1-c1ccccc1C)C(=O)[O-].[Li+] [Example 808]
% inhibition of farnesyltransferase at 1 × 10^-6 M: 88%

SMILES: CSCC[C@H](NC(=O)c1ccc(COCC2CCCO2)cc1-c1ccccc1)C(=O)O (some centres unmarked) [Example 288]
% inhibition of farnesyltransferase at 1 × 10^-6 M: 22%

SMILES: CSCC[C@H](NC(=O)c1ccc(COCC2CCCCC2)cc1-c1ccccc1C)C(=O)[O-].[Li+] [Example 585]
% inhibition of farnesyltransferase at 1 × 10^-7 M: 96%

SMILES: CCCCC(OCc1ccc(C(=O)N[C@@H](CCSC)C(=O)[O-])c(-c2ccccc2C)c1)c1ccco1.[Li+] (some centres unmarked) [Example 825]
% inhibition of farnesyltransferase at 1 × 10^-7 M: 79%

SMILES: CCSC[C@H](CC1CCCCC1)NCc1ccc(C(=O)N[C@@H](CCSC)C(=O)O)c(-c2ccccc2C)c1 [Example 403]
% inhibition of farnesyltransferase at 1 × 10^-6 M: 99%

SMILES: CSCC[C@H](NC(=O)c1ccc(COCc2ccsc2)cc1-c1ccccc1C)C(=O)[O-].[Li+] [Example 274]
% inhibition of farnesyltransferase at 1 × 10^-6 M: 94%

SMILES: CSCC[C@H](NC(=O)c1ccc(NC[C@@H]2CSCN2)cc1-c1ccccc1)C(=O)O.Cl [Example 166]
% inhibition of farnesyltransferase at 1 × 10^-6 M: 97%

SMILES: CSCC[C@H](NC(=O)c1ccc(CN(C(C)C)C2(Cc3ccccc3)CC2)cc1-c1ccccc1C)C(=O)O [Example 325]
inhibition at 1 µM: 99%

SMILES: CCCCN(C)N(CCC1CCCCC1)Cc1ccc(C(=O)N[C@@H](CCS(C)(=O)=O)C(=O)O)c(-c2ccccc2C)c1 [Example 300]
inhibition at 1 µM: 22%

SMILES: CSCC[C@H](NC(=O)c1ccc(COCc2cncs2)cc1-c1ccccc1C)C(=O)[O-].[Li+] [Example 539]
% inhibition of farnesyltransferase at 1 × 10^-7 M: 89%

Other lines, results leading:

inhibition at 1 µM: 53%
SMILES: CSCC[C@H](NC(=O)c1ccc(/C=C/c2ccccc2)cc1-c1ccccc1C)C(=O)O [Example 791, N-[4-(2-phenylethen-1-yl)-2-(2-methylphenyl)benzoyl]methionine]

% inhibition of farnesyltransferase at 1 × 10^-7 M: 72%
SMILES: CSCC[C@H](NC(=O)c1ccc(CNc2ccc(N3CCOCC3)cc2)cc1-c1ccccc1C)C(=O)O [Example 863]

% inhibition of farnesyltransferase at 1 × 10^-5 M: 46%
SMILES: CCN(Cc1ccc(C(=O)N[C@@H](CCSC)C(=O)O)c(-c2ccccc2)c1)Cc1cc([N+](=O)[O-])ccc1O [Example 711]

% inhibition of farnesyltransferase at 1 × 10^-5 M: 67%
SMILES: CSCC[C@H](NC(=O)c1ccc(CNc2ccc(C)c(C)c2)cc1-c1ccccc1)C(=O)O [Example 704]

inhibition at 1 µM: 32%
SMILES: CSCC[C@H](NC(=O)c1ccc(S(=O)(=O)NCCN2CCOCC2)cc1-c1ccccc1C)C(=O)O [Example 775, lithium salt]

% inhibition of farnesyltransferase at 1 × 10^-7 M: 90%
SMILES: CSCC[C@H](NC(=O)c1ccc(COCc2cccc(N(C)C)c2)cc1-c1ccccc1C)C(=O)O [Example 941]

% inhibition of farnesyltransferase at 1 × 10^-6 M: 76%
SMILES: CCSC[C@H](CC1CCCCC1)NCc1ccc(C(=O)N(C)[C@@H](CCSC)C(=O)O)c(-c2ccccc2C)c1 [Example 765]

% inhibition of farnesyltransferase at 1 × 10^-8 M: 76%
SMILES: CSCC[C@H](NC(=O)c1ccc(COCc2ccc(-c3ccc(Cl)cc3)o2)cc1-c1ccccc1C)C(=O)NS(=O)(=O)c1ccccc1 [Example 819]

% inhibition of farnesyltransferase at 1 × 10^-6 M: 40%
SMILES: CSCC[C@H](NC(=O)c1ccc(CNc2ccc(-c3nc4ccccc4s3)cc2)cc1-c1ccccc1)C(=O)O [Example 703]

% inhibition of farnesyltransferase at 1 × 10^-8 M: 90%
SMILES: CSCC[C@H](NC(=O)c1ccc(CSCc2ccccc2)cc1-c1ccccc1C)C(=O)NS(=O)(=O)c1ccc(C)cc1 [Example 586]

% inhibition of farnesyltransferase at 1 × 10^-8 M: 88%
SMILES: CCSC[C@H](CC1CCCCC1)N(C)Cc1ccc(C(=O)N[C@@H](CCSC)C(=O)O)c(-c2ccccc2C)c1 [Example 944]

% inhibition of farnesyltransferase at 1 × 10^-6 M: 98%
SMILES: CCS(=O)(=O)C[C@H](CC1CCCCC1)NCc1ccc(C(=O)N[C@@H](CCSC)C(=O)O)c(-c2ccccc2C)c1 [Example 620]

% inhibition of farnesyltransferase at 1 × 10^-7 M: 89%
SMILES: CCCCN(CCCC)C(=O)CN(C)Cc1ccc(C(=O)N[C@@H](CCSC)C(=O)O)c(-c2ccccc2C)c1 [Example 913]

inhibition at 0.1 µM: 90%
SMILES: CSCC[C@H](NC(=O)c1ccc(CN2CCC[C@@H]2COCc2ccccc2)cc1-c1ccccc1C)C(=O)O [Example 993, N-[4-(2-benzyloxymethylpyrrolidin-1-ylmethyl)-2-(2-methylphenyl)benzoyl]methionine]

inhibition at 0.01 µM (read-out: % inhibition at 0.01 μM (**), Table 6, ** = 0.01 μM (footnote), title prints 0.01 mM): 85%
SMILES: CSCC[C@H](NC(=O)c1ccc(CP(=O)(CCC2CCCCC2)CCC2CCCCC2)cc1-c1ccccc1C)C(=O)O [Example 1219, N-[4-(Di(2-cylohexylethyl)(oxophosphinyl)methyl)-2-(2-methylphenyl)benzoyl]methionine]

% inhibition of farnesyltransferase at 1 × 10^-7 M: 91%
SMILES: COc1ccccc1CCOCc1ccc(C(=O)N[C@@H](CCSC)C(=O)O)c(-c2ccccc2C)c1 [Example 589]

inhibition at 1 µM: 48%
SMILES: CSCC[C@H](NC(=O)c1ccc(S(=O)(=O)NCCN2CCCCC2)cc1-c1ccccc1C)C(=O)O [Example 774, lithium salt]

% inhibition at 0.01 μM (**) (Table 6, ** = 0.01 μM (footnote), title prints 0.01 mM): 83%
SMILES: CCSCC(CC1CCCCC1)NCc1cc(-c2ccccc2C)c(C(=O)N[C@@H](CCSC)C(=O)O)cc1OC (some centres unmarked) [Example 1337]

inhibition at 0.1 µM: 86%
SMILES: CSCC[C@H](NC(=O)c1ccc(CCc2ccc(Oc3cccc(Cl)c3)cc2)cc1-c1ccccc1C)C(=O)O [Example 859, N-[4-(2-(4-(3-chlorophenoxy)phenyl)ethyl)-2-(2-methylphenyl)benzoyl]methionine]

inhibition at 1 µM: 83%
SMILES: CSCC[C@H](NC(=O)c1ccc(S(=O)(=O)NCCCn2ccnc2)cc1-c1ccccc1C)C(=O)O [Example 777, lithium salt]

% inhibition of farnesyltransferase at 1 × 10^-8 M: 95%
SMILES: CSCC[C@H](NC(=O)c1ccc(CN(CCC2CCCCC2)C2CC2)cc1-c1ccccc1C)C(=O)O [Example 880]

% inhibition of farnesyltransferase at 1 × 10^-6 M: 88%
SMILES: CSCC[C@H](NC(=O)c1ccc(CN(CC(C)C)C(CC2CCCCC2)CC2CCCCC2)cc1-c1ccccc1C)C(=O)O [Example 908]

% inhibition of farnesyltransferase at 1 × 10^-7 M: 84%
SMILES: CSCC[C@H](NC(=O)c1ccc(CSc2nc3ccccc3[nH]2)cc1-c1ccccc1C)C(=O)O [Example 732]

% inhibition of farnesyltransferase at 1 × 10^-6 M: 87%
SMILES: CSCC[C@H](NC(=O)c1cc(Cc2ccccc2)c(COCCCc2ccccc2)cc1-c1ccccc1C)C(=O)O [Example 925]

% inhibition of farnesyltransferase at 1 × 10^-8 M: 75%
SMILES: CSCC[C@H](NC(=O)c1ccc(COCc2ccc(-c3ccc(N(C)C)cc3)o2)cc1-c1ccccc1C)C(=O)O [Example 821]

% inhibition of farnesyltransferase at 1 × 10^-7 M: 78%
SMILES: CSCC[C@H](NC(=O)c1ccc(COCc2ccc(-c3ccc(Cl)cc3)o2)cc1-c1ccccc1C)C(=O)NS(C)(=O)=O [Example 818]

% inhibition of farnesyltransferase at 1 × 10^-6 M: 58%
SMILES: CCOC(=O)c1ccc(NCc2ccc(C(=O)N[C@@H](CCSC)C(=O)O)c(-c3ccccc3)c2)cc1 [Example 646]

% inhibition of farnesyltransferase at 1 × 10^-6 M: 68%
SMILES: CSCC[C@H](NC(=O)c1ccc(CNC(CO)Cc2ccc(Cl)cc2)cc1-c1ccccc1)C(=O)O (some centres unmarked) [Example 662]
